Measured values: the supplement of paper PMC11451515

Test system: SEM cells
Experiment: cell viability relative to DMSO control; higher = less cytotoxic
Conditions: 48 h
Outline: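 Viability is a per-plate percentage relative to DMSO wells, with cell-free wells as background. CellTiter-Glo One luminescence was read after 48 h at 37°C on 1536-well plates (5 μl) of NOMO1 or SEM (500 cells/well) or P12-Ichikawa (1000 cells/well) leukemia cells. The cells had been adapted for at least four passages in each medium and pin-dosed with library compounds in DMSO from 47 μM to 0.79 nM in 11 threefold steps.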

[1] = HPLM + 10% dialyzed FBS, 0.000781 µM
[2] = HPLM + 10% dialyzed FBS, 0.00234 µM
[3] = HPLM + 10% dialyzed FBS, 0.00702 µM
[4] = HPLM + 10% dialyzed FBS, 0.0211 µM
[5] = HPLM + 10% dialyzed FBS, 0.0632 µM
[6] = HPLM + 10% dialyzed FBS, 0.19 µM
[7] = HPLM + 10% dialyzed FBS, 0.569 µM
[8] = HPLM + 10% dialyzed FBS, 1.71 µM
[9] = HPLM + 10% dialyzed FBS, 5.12 µM
[10] = HPLM + 10% dialyzed FBS, 15.4 µM
[11] = HPLM + 10% dialyzed FBS, 46.1 µM
[12] = RPMI 5 mM glucose + 10% FBS, 0.000781 µM
[13] = RPMI 5 mM glucose + 10% FBS, 0.00234 µM
[14] = RPMI 5 mM glucose + 10% FBS, 0.00702 µM
[15] = RPMI 5 mM glucose + 10% FBS, 0.0211 µM
[16] = RPMI 5 mM glucose + 10% FBS, 0.0632 µM
[17] = RPMI 5 mM glucose + 10% FBS, 0.19 µM
[18] = RPMI 5 mM glucose + 10% FBS, 0.569 µM
[19] = RPMI 5 mM glucose + 10% FBS, 1.71 µM
[20] = RPMI 5 mM glucose + 10% FBS, 5.12 µM
[21] = RPMI 5 mM glucose + 10% FBS, 15.4 µM
[22] = RPMI 5 mM glucose + 10% FBS, 46.1 µM
[23] = RPMI 5 mM glucose + 10% dialyzed FBS, 0.000781 µM
[24] = RPMI 5 mM glucose + 10% dialyzed FBS, 0.00234 µM
[25] = RPMI 5 mM glucose + 10% dialyzed FBS, 0.00702 µM
[26] = RPMI 5 mM glucose + 10% dialyzed FBS, 0.0211 µM
[27] = RPMI 5 mM glucose + 10% dialyzed FBS, 0.0632 µM
[28] = RPMI 5 mM glucose + 10% dialyzed FBS, 0.19 µM
[29] = RPMI 5 mM glucose + 10% dialyzed FBS, 0.569 µM
[30] = RPMI 5 mM glucose + 10% dialyzed FBS, 1.71 µM
[31] = RPMI 5 mM glucose + 10% dialyzed FBS, 5.12 µM
[32] = RPMI 5 mM glucose + 10% dialyzed FBS, 15.4 µM
[33] = RPMI 5 mM glucose + 10% dialyzed FBS, 46.1 µM

| SMILES | cell viability [1] | cell viability [2] | cell viability [3] | cell viability [4] | cell viability [5] | cell viability [6] | cell viability [7] | cell viability [8] | cell viability [9] | cell viability [10] | cell viability [11] | cell viability [12] | cell viability [13] | cell viability [14] | cell viability [15] | cell viability [16] | cell viability [17] | cell viability [18] | cell viability [19] | cell viability [20] | cell viability [21] | cell viability [22] | cell viability [23] | cell viability [24] | cell viability [25] | cell viability [26] | cell viability [27] | cell viability [28] | cell viability [29] | cell viability [30] | cell viability [31] | cell viability [32] | cell viability [33] |
| --- | --- | --- | --- | --- | --- | --- | --- | --- | --- | --- | --- | --- | --- | --- | --- | --- | --- | --- | --- | --- | --- | --- | --- | --- | --- | --- | --- | --- | --- | --- | --- | --- | --- |
| COc1cc2c(NC3CCN(C(C)C)CC3)nc(C3CCCCC3)nc2cc1OCCCN1CCCC1 | 111% | 125% | 109% | 122% | 122% | 125% | 130% | 81.9% | 108% | 61.7% | 6.83% | 109% | 113% | 122% | 116% | 112% | 122% | 109% | 77.3% | 113% | 76.6% | 10.2% | 90.1% | 114% | 111% | 119% | 116% | 113% | 112% | 76.8% | 115% | 93.5% | 32.9% |
| CC1=C2N=C([NH]C2=CC(=C1)N3CCOCC3)\C4=C(NC[C@@H](O)C5=CC=CC(=C5)Cl)\C=C/NC4=O | 77.8% | 95.7% | 91.4% | 91.2% | 82.8% | 75.8% | 61.3% | 52.5% | 26.9% | 19.4% | 15.4% | 81.3% | 105% | 122% | 115% | 94.1% | 95.6% | 83.7% | 56.2% | 26.6% | 14.2% | 8.45% | 70.7% | 90.3% | 84.6% | 80.1% | 67.9% | 75.1% | 66.8% | 46.7% | 21.1% | 13.7% | 7.96% |
| Cn1c(=O)c2c(ncn2CC(O)CO)n(C)c1=O (stereo unspecified) | 87.4% | 101% | 116% | 92.6% | 104% | 109% | 113% | 111% | 96% | 108% | 124% | 106% | 96.7% | 120% | 101% | 120% | 123% | 113% | 111% | 111% | 111% | 122% | 93.1% | 120% | 99.3% | 110% | 116% | 113% | 121% | 133% | 135% | 125% | 137% |
| COc1cc(N2CCC(N3CCN(C)CC3)CC2)ccc1Nc1ncnc(Nc2ccccc2[S+](=O)([O-])C(C)C)n1 | 69.6% | 81.5% | 85.8% | 99.3% | 67.4% | 106% | 104% | 88.4% | 67.6% | 25.2% | 11.9% | 71.3% | 72.6% | 90.7% | 93.8% | 59.6% | 123% | 109% | 81% | 59.4% | 22.5% | 7.39% | 87.4% | 90.2% | 82.2% | 85.7% | 69.8% | 132% | 127% | 109% | 72.7% | 26.4% | 12.9% |
| CC(C)(O)CNc1nc(Nc2ccnc(C(F)(F)F)c2)nc(-c2cccc(C(F)(F)F)n2)n1 | 106% | 89% | 101% | 105% | 91.3% | 109% | 110% | 93.5% | 67.2% | 33.1% | 24.6% | 99.5% | 84.7% | 119% | 107% | 80.7% | 122% | 117% | 64.7% | 31.3% | 15.8% | 14.6% | 105% | 89.8% | 112% | 107% | 106% | 114% | 122% | 88.7% | 44.6% | 21.4% | 14.7% |
| COc1ccc(Cn2ccc3ccc(C(=O)NO)cc32)cc1 | 102% | 107% | 120% | 120% | 123% | 113% | 127% | 118% | 112% | 114% | 58.5% | 103% | 115% | 122% | 98.1% | 109% | 129% | 127% | 127% | 109% | 109% | 49.3% | 99.6% | 110% | 115% | 76.3% | 114% | 118% | 112% | 110% | 112% | 111% | 38.5% |
| CCC(=O)O[C@@]1([C@H](C)C[C@H]2[C@@H]3C[C@H](F)\C4=C\C(=O)\C=C/[C@]4(C)[C@@]3(F)[C@@H](O)C[C@]12C)C(=O)SCF | 96.6% | 102% | 94.7% | 68% | 60.6% | 13.1% | 66.1% | 79.4% | 64.9% | 61.9% | 58% | 94.2% | 103% | 88.6% | 67.8% | 53.2% | 13.1% | 68.6% | 73% | 68.6% | 59.5% | 59.6% | 98.1% | 124% | 83.6% | 73.5% | 40.5% | 11.7% | 58.8% | 63.4% | 60.6% | 53.3% | 53.4% |
